{
  "source": "paper PMC7235764",
  "about": "“Novel Azoles as Antiparasitic Remedies against Brain-Eating Amoebae” (Antibiotics, 2020)",
  "key": {"B. mandrillaris [1]": {"tested_on": "B. mandrillaris", "experiment": "Amoebistatic assay (growth inhibition on HeLa feeder monolayers) against B. mandrillaris", "format": "cell-based, Balamuthia mandrillaris", "settings": "24 h; for amoebistatic activity, mean (M): 50 μM, M with SD; for inhibition at 50 µM: Balamuthia mandrillaris, HeLa, untreated amoebae considered as 0%", "description": "(§1) N. fowleri cells (ATCC 30174) and B. mandrillaris cells (ATCC 50209) were acquired from American Type Culture Collection and cultivated in RPMI-1640 media supplemented with 1% antibiotics with HeLa cell monolayers used as a feeder layer at 37 °C and 5% CO2 as previously cultured. 5 × 10^5 amoebae cells were kept for 24 h at 37 °C and 5% CO2 with 50 μM azole compounds on HeLa monolayers as feeder cells. While positive controls used were amphotericin B and ketoconazole, RPMI-1640 alone was used as negative control and respective solvents were used as solvent control. Trypan blue exclusion assay which consists of using 0.1% trypan blue to distinguish between live (unstained) and dead (stained) cells and count the cells using a haemocytometer."}, "B. mandrillaris [2]": {"tested_on": "B. mandrillaris", "experiment": "Amoebicidal assay (trypan blue exclusion) against B. mandrillaris", "format": "cell-based, Balamuthia mandrillaris", "settings": "50 μM, 24 h; for amoebicidal activity, mean (M): M with SD, azole alone (before conjugation); for percentage cell death (amoebicidal activity): negative control considered as 0%", "description": "(§2) N. fowleri cells (ATCC 30174) and B. mandrillaris cells (ATCC 50209) were acquired from American Type Culture Collection and cultivated in RPMI-1640 media supplemented with 1% antibiotics with HeLa cell monolayers used as a feeder layer at 37 °C and 5% CO2 as previously cultured.\n(§3) Amoebicidal assays were accomplished as formerly explained. Briefly, 5 × 10^5 amoebae cells were kept for 24 h at 37 °C and 5% CO2 with 50 μM azole compounds. While positive controls used were amphotericin B and ketoconazole, RPMI-1640 alone was used as negative control and respective solvents were used as solvent control. Trypan blue exclusion assay, which consists of using 0.1% trypan blue to differentiate between live (unstained) and dead (stained) cells and count the cells using a haemocytometer."}, "N. fowleri [3]": {"tested_on": "N. fowleri", "experiment": "Amoebicidal assay (trypan blue exclusion) against N. fowleri", "format": "cell-based, Naegleria fowleri", "settings": "50 μM, 24 h; for amoebicidal activity, mean (M): M with SD, azole alone (before conjugation); for percentage cell death (amoebicidal activity): negative control considered as 0%", "description": "as §2, §3"}, "HaCaT cells": {"tested_on": "HaCaT cells", "experiment": "Cytotoxicity assay (LDH release) against human cells", "format": "cell-based", "settings": "50 μM, 24 h, 37 °C", "description": "Figure 3 Cytotoxic effects of azoles against host cells. Briefly, 50 μM azoles were incubated with HaCaT cells monolayers for 24 h at 37 °C in a 5% CO2 incubator as described in Materials and Methods. […] The data are presented as the mean ± standard error. Cytotoxic effects of the drugs were determined as previously described. 50 μM azole compounds was incubated on HeLa cells for 24 h at 37 °C and 5% CO2 in RPMI-1640 media. The level of lactate dehydrogenase (LDH) enzyme in the RPMI-media which indicates cytotoxic effects of drugs was determined by means of a cytotoxicity detection kit (Roche Applied Science). The percentage cytotoxicity was calculated: [(Absorbance of sample - Absorbance of untreated cells)/(Absorbance for total LDH release - Absorbance of untreated cells)] × 100 = percentage cytotoxicity."}, "N. fowleri [4]": {"tested_on": "N. fowleri", "experiment": "Amoebistatic assay (growth inhibition on HeLa feeder monolayers) against N. fowleri", "format": "cell-based, Naegleria fowleri", "settings": "24 h; for amoebistatic activity, mean (M): 50 μM, M with SD; for inhibition at 50 µM: Naegleria fowleri, HeLa, compared to untreated cells", "description": "as §1"}},
  "data": [
    {"smiles": "Clc1cccc(Cc2nnn[nH]2)c1", "note": "[A5, 5-(3-Chlorobenzyl)-1H-tetrazole]", "values": [
      {"measurement": "amoebistatic activity, mean (M)", "setting": "B. mandrillaris [1]", "value": 51.24, "unit": "%"},
      {"measurement": "inhibition at 50 µM", "setting": "B. mandrillaris [1]", "value": 51, "unit": "%"},
      {"measurement": "amoebicidal activity, mean (M)", "setting": "B. mandrillaris [2]", "value": 64.54, "unit": "%"},
      {"measurement": "percentage cell death (amoebicidal activity)", "setting": "B. mandrillaris [2]", "value": 65, "unit": "%"},
      {"measurement": "amoebicidal activity, mean (M)", "setting": "N. fowleri [3]", "value": 66.19, "unit": "%"},
      {"measurement": "percentage cell death (amoebicidal activity)", "setting": "N. fowleri [3]", "value": 66, "unit": "%"},
      {"measurement": "cytotoxicity", "setting": "HaCaT cells", "value": 11, "unit": "%"},
      {"measurement": "amoebistatic activity, mean (M)", "setting": "N. fowleri [4]", "value": 62.74, "unit": "%"},
      {"measurement": "inhibition at 50 µM", "setting": "N. fowleri [4]", "value": 63, "unit": "%"}
    ]},
    {"smiles": "CC1(C)C/C(=N\\NC(=S)Nc2ccccc2Cl)c2cnn(-c3ccccc3)c2C1", "note": "[A3, (E)-N-(2-Chlorophenyl)-2-(6,6-dimethyl-1-phenyl-1,5,6,7-tetrahydro-4H-indazol-4-4ylidene)hydrazine-1-carbothioamide]", "values": [
      {"measurement": "amoebistatic activity, mean (M)", "setting": "B. mandrillaris [1]", "value": 55.62, "unit": "%"},
      {"measurement": "inhibition at 50 µM", "setting": "B. mandrillaris [1]", "value": 56, "unit": "%"},
      {"measurement": "amoebicidal activity, mean (M)", "setting": "B. mandrillaris [2]", "value": 23.86, "unit": "%"},
      {"measurement": "percentage cell death (amoebicidal activity)", "setting": "B. mandrillaris [2]", "value": 24, "unit": "%"},
      {"measurement": "percentage cell death (amoebicidal activity)", "setting": "N. fowleri [3]", "value": 39, "unit": "%"},
      {"measurement": "cytotoxicity", "setting": "HaCaT cells", "value": 19, "unit": "%"},
      {"measurement": "amoebistatic activity, mean (M)", "setting": "N. fowleri [4]", "value": 75.12, "unit": "%"},
      {"measurement": "inhibition at 50 µM", "setting": "N. fowleri [4]", "value": 75, "unit": "%"}
    ]},
    {"smiles": "CC1(C)C/C(=N\\NC(N)=S)c2cnn(-c3ccccc3)c2C1", "note": "[A4, (E)-2-(6,6-Dimethyl-1-phenyl-1,5,6,7-tetrahydro-4H-indazol-4-4ylidene)hydrazine-1-carbothioamide]", "values": [
      {"measurement": "amoebistatic activity, mean (M)", "setting": "B. mandrillaris [1]", "value": 64.98, "unit": "%"},
      {"measurement": "inhibition at 50 µM", "setting": "B. mandrillaris [1]", "value": 65, "unit": "%"},
      {"measurement": "amoebicidal activity, mean (M)", "setting": "B. mandrillaris [2]", "value": 1.65, "unit": "%"},
      {"measurement": "percentage cell death (amoebicidal activity)", "setting": "B. mandrillaris [2]", "value": "limited amoebicidal activity"},
      {"measurement": "amoebicidal activity, mean (M)", "setting": "N. fowleri [3]", "value": 72.34, "unit": "%"},
      {"measurement": "percentage cell death (amoebicidal activity)", "setting": "N. fowleri [3]", "value": 72, "unit": "%"},
      {"measurement": "cytotoxicity", "setting": "HaCaT cells", "value": 5, "unit": "%"},
      {"measurement": "amoebistatic activity, mean (M)", "setting": "N. fowleri [4]", "value": 54.70, "unit": "%"},
      {"measurement": "inhibition at 50 µM", "setting": "N. fowleri [4]", "value": 55, "unit": "%"}
    ]},
    {"smiles": "Cc1ccc(-c2nc3ccccc3[nH]2)o1", "note": "[A2]", "values": [
      {"measurement": "amoebistatic activity, mean (M)", "setting": "B. mandrillaris [1]", "value": 70.33, "unit": "%"},
      {"measurement": "inhibition at 50 µM", "setting": "B. mandrillaris [1]", "value": 70, "unit": "%"},
      {"measurement": "percentage cell death (amoebicidal activity)", "setting": "B. mandrillaris [2]", "value": "limited amoebicidal activity"},
      {"measurement": "percentage cell death (amoebicidal activity)", "setting": "N. fowleri [3]", "value": 31, "unit": "%"},
      {"measurement": "cytotoxicity", "setting": "HaCaT cells", "value": "no cytotoxic activities"},
      {"measurement": "amoebistatic activity, mean (M)", "setting": "N. fowleri [4]", "value": 64.31, "unit": "%"},
      {"measurement": "inhibition at 50 µM", "setting": "N. fowleri [4]", "value": 64, "unit": "%"}
    ]},
    {"smiles": "c1ccc(-c2nnn[nH]2)cc1", "note": "[A6, 5-Phenyl-1H-tetrazole]", "values": [
      {"measurement": "amoebistatic activity, mean (M)", "setting": "B. mandrillaris [1]", "value": 70.35, "unit": "%"},
      {"measurement": "inhibition at 50 µM", "setting": "B. mandrillaris [1]", "value": 70, "unit": "%"},
      {"measurement": "amoebicidal activity, mean (M)", "setting": "B. mandrillaris [2]", "value": 30.58, "unit": "%"},
      {"measurement": "percentage cell death (amoebicidal activity)", "setting": "B. mandrillaris [2]", "value": 31, "unit": "%"},
      {"measurement": "percentage cell death (amoebicidal activity)", "setting": "N. fowleri [3]", "value": 45, "unit": "%"},
      {"measurement": "cytotoxicity", "setting": "HaCaT cells", "value": "no cytotoxic activities"},
      {"measurement": "amoebistatic activity, mean (M)", "setting": "N. fowleri [4]", "value": 66.53, "unit": "%"},
      {"measurement": "inhibition at 50 µM", "setting": "N. fowleri [4]", "value": 67, "unit": "%"}
    ]},
    {"smiles": "COc1cc(-c2nc3ccccc3[nH]2)cc(Br)c1OC", "note": "[A1, 2-[3-Bromo-4,5-bis(methoxy)phenyl]-1H-benzimidazole]", "values": [
      {"measurement": "amoebistatic activity, mean (M)", "setting": "B. mandrillaris [1]", "value": 52.63, "unit": "%"},
      {"measurement": "inhibition at 50 µM", "setting": "B. mandrillaris [1]", "value": 53, "unit": "%"},
      {"measurement": "amoebicidal activity, mean (M)", "setting": "B. mandrillaris [2]", "value": 35.62, "unit": "%"},
      {"measurement": "percentage cell death (amoebicidal activity)", "setting": "B. mandrillaris [2]", "value": 36, "unit": "%"},
      {"measurement": "amoebicidal activity, mean (M)", "setting": "N. fowleri [3]", "value": 0, "unit": "%"},
      {"measurement": "percentage cell death (amoebicidal activity)", "setting": "N. fowleri [3]", "value": "did not cause amoebicidal activity"},
      {"measurement": "cytotoxicity", "setting": "HaCaT cells", "value": 41, "unit": "%"},
      {"measurement": "inhibition at 50 µM", "setting": "N. fowleri [4]", "value": 20, "unit": "%"}
    ]}
  ]
}
